Test results from patent US20070128217A1 (priority 2003, published 2007).

What was measured:
[1] = system: antibodies in sera from SARS patients (sera 1a, 1b, 2, 6, 37, 62, London, SARS-yellow, SARS-green); assay type: binding, human; set-up: Binding of serum 6 to linear peptides of protein X1 of SARS-CoV Urbani / Binding of serum 37 to linear peptides of protein X1 of SARS-CoV Urbani / Binding of serum 6 to looped/cyclic peptide (PEPSCAN-ELISA) / Binding of serum 37 to looped/cyclic peptide (PEPSCAN-ELISA) / Binding of serum 37 to looped/cyclic peptides of protein X1 of SARS-CoV Urbani / Binding of serum 6 to linear peptides of protein X2 / Binding of serum 37 to linear peptides of protein X2 / Binding of serum 37 to looped/cyclic peptides of protein X2 of SARS-CoV Urbani / Binding of serum 6 to linear peptides of protein M of SARS-CoV Urbani / Binding of serum 37 to linear peptides of protein M of SARS-CoV Urbani / Binding of serum 6 to looped/cyclic peptides of protein M of SARS-CoV Urbani / Binding of serum 37 to looped/cyclic peptides of protein M of SARS-CoV Urbani / Binding of serum 6 to linear peptides of protein X3 of SARS-CoV Urbani / Binding of serum 37 to linear peptides of protein X3 of SARS-CoV Urbani / Binding of serum 37 to looped/cyclic peptides of protein X3 of SARS-CoV Urbani / Binding of serum 6 to linear peptides of protein X4 of SARS-CoV Urbani / Binding of serum 37 to linear peptides of protein X4 of SARS-CoV Urbani / Binding of serum 37 to looped/cyclic peptides of protein X4 of SARS-CoV Urbani / Binding of serum 6 to linear peptides of protein X5 of SARS-CoV Urbani / Binding of serum 37 to linear peptides of protein X5 of SARS-CoV Urbani / Binding of serum 37 to looped/cyclic peptides of protein X5 of SARS-CoV Urbani / Binding of serum 6 to linear peptides of protein N of SARS-CoV Urbani / Binding of serum 37 to linear peptides of protein N of SARS-CoV Urbani / Binding of serum 6 to linear peptide (PEPSCAN-ELISA) / Binding of serum 1a to looped/cyclic peptides of protein N of SARS-CoV Urbani / Binding of serum 1b to looped/cyclic peptides of protein N of SARS-CoV Urbani / Binding of serum 2 to looped/cyclic peptides of protein N of SARS-CoV Urbani / Binding of serum 6 to looped/cyclic peptides of protein N of SARS-CoV Urbani / Binding of serum 37 to looped/cyclic peptides of protein N of SARS-CoV Urbani / Binding of serum 62 to looped/cyclic peptides of protein N of SARS-CoV Urbani / Binding of serum London to looped/cyclic peptides of protein N of SARS-CoV Urbani / Binding of serum SARS-green to looped/cyclic peptides of protein N of SARS-CoV Urbani: unit not given here
[2] = system: control sera (pooled serum of ten healthy LUMC hospital workers; commercial negative donor pooled serum from the Dutch bloodbank); assay type: binding, human; set-up: Binding of Control serum LUMC to linear peptides / Binding of Control serum Blood-bank to linear peptides / Binding of Control serum LUMC to looped peptides / Binding of Control Serum Blood-Bank to Looped peptides / Binding of Control serum LUMC to linear peptides of the protein M of SARS-CoV Urbani / Binding of Control serum Blood-bank to linear peptides of the protein M of SARS-CoV Urbani / Binding of Control serum LUMC to looped peptides of the protein M of SARS-CoV Urbani / Binding of Control Serum Blood-Bank to Looped peptides of the protein M of SARS-CoV Urbani: unit not given here
[3] = system: rabbit serum obtained by immunizing a rabbit with the SARS-CoV strain Frankfurt 1; assay type: binding; set-up: Binding of a rabbit serum to linear peptides / Binding of a rabbit serum to looped peptides / Rabbit serum linear peptides / Rabbit serum looped peptides / Binding of a rabbit serum to linear peptides of protein N of SARS-CoV Urbani (Rabbit serum linear peptides) / Binding of a rabbit serum to looped/cyclic peptides of protein N of SARS-CoV Urbani (Rabbit serum looped peptides): unit not given here
[4] = system: recombinant human anti-SARS-CoV antibody 03-018; assay type: binding; set-up: Binding of antibody 03-018 to linear peptides of the N protein of SARS-CoV Urbani / Binding of antibody 03-018 to looped/cyclic peptides of the N protein of SARS-CoV Urbani: unit not given here

Sequence	Binding of serum 1a to linear peptide (PEPSCAN-ELISA) [1]	Binding of serum 1a to looped/cyclic peptides of protein N of SARS-CoV Urbani [1]	Binding of serum 1b to linear peptide (PEPSCAN-ELISA) [1]	Binding of serum 1b to looped/cyclic peptides of protein N of SARS-CoV Urbani [1]	Binding of serum 2 to linear peptide (PEPSCAN-ELISA) [1]	Binding of serum 2 to looped/cyclic peptides of protein N of SARS-CoV Urbani [1]	Binding of serum 6 to linear peptide (PEPSCAN-ELISA) [1]	Binding of serum 6 to looped/cyclic peptides of protein N of SARS-CoV Urbani [1]	Binding of serum 37 to linear peptide (PEPSCAN-ELISA) [1]	Binding of serum 37 to looped/cyclic peptides of protein N of SARS-CoV Urbani [1]	Binding of serum 62 to linear peptide (PEPSCAN-ELISA) [1]	Binding of serum 62 to looped/cyclic peptides of protein N of SARS-CoV Urbani [1]	Binding of serum London to linear peptide (PEPSCAN-ELISA) [1]	Binding of serum London to looped/cyclic peptides of protein N of SARS-CoV Urbani [1]	Binding of serum SARS-green to linear peptide (PEPSCAN-ELISA) [1]	Binding of serum SARS-green to looped/cyclic peptides of protein N of SARS-CoV Urbani [1]	Binding of serum SARS-yellow to linear peptide (PEPSCAN-ELISA) [1]	Binding of serum SARS-yellow to looped/cyclic peptides of protein N of SARS-CoV Urbani [1]	Binding of Control Serum Blood-Bank to Looped peptides [2]	Binding of Control serum Blood-bank to linear peptides [2]	also measured
AEGSRGGSQASSRSS	0.3	0.4	0.2	0.2	0.3	0.4	0.3	0.5	0.7	0.5	0.7	0.5	0.5	0.4	0.4	0.4	0.6	0.4	0.6	0.8	Binding of Control serum LUMC to linear peptides [2]: 0.8; Binding of Control serum LUMC to looped peptides [2]: 0.8; Binding of a rabbit serum to linear peptides of protein N of SARS-CoV Urbani (Rabbit serum linear peptides) [3]: 0.2; Binding of a rabbit serum to looped/cyclic peptides of protein N of SARS-CoV Urbani (Rabbit serum looped peptides) [3]: 0.6; Binding of antibody 03-018 to linear peptides of the N protein of SARS-CoV Urbani [4]: 0.1; Binding of antibody 03-018 to looped/cyclic peptides of the N protein of SARS-CoV Urbani [4]: 0.2
SKKPRQKRTATKQYN	0.2	0.3	0.1	0.1	0.3	0.4	0.2	0.3	0.6	0.6	0.7	0.6	0.5	0.5	0.1	0.1	0.4	0.3	0.6	0.8	Binding of Control serum LUMC to linear peptides [2]: 0.7; Binding of Control serum LUMC to looped peptides [2]: 0.5; Binding of a rabbit serum to linear peptides of protein N of SARS-CoV Urbani (Rabbit serum linear peptides) [3]: 0.2; Binding of a rabbit serum to looped/cyclic peptides of protein N of SARS-CoV Urbani (Rabbit serum looped peptides) [3]: 0.1; Binding of antibody 03-018 to linear peptides of the N protein of SARS-CoV Urbani [4]: 0.1; Binding of antibody 03-018 to looped/cyclic peptides of the N protein of SARS-CoV Urbani [4]: 0.2
